Results published in US4732916A, “Novel guanidinomethylbenzoic acid derivatives” (Kabushiki Kaisha Med-Creat, priority 1985, dated 1988).

Experiments:
Format in all cases: in vivo
[1] = test system: ethanol induced ulcer; test: Test Method 2: Effect on Ethanol Induced Ulcer; conditions: Rattus norvegicus; SD male rats, oral, 30 minutes before oral ethanol (99.5%, 1 ml); stomachs removed one hour later
Procedure: 1. Test Procedures The method of Robert (Gastroenterology, 77, 433 (1979)) was followed. SD male rats each weighing from 180 to 200 g (8 weeks of age and 6 to 8 rats in one group) were fasted for 24 hours, followed by oral administration of the test compounds which had been suspended in 1% CMC aqueous solution. After lapse of 30 minutes, 1 ml of ethanol (99.5%) was orally administered. One hour later, the animals were killed under etherization to remove the stomachs. Each of the stomachs was injected with 12 ml of 1% formalin aqueous solution and then immersed in 1% formalin aqueous solution for 15 minutes. The ulcer factor and ulcer inhibition rate were determined in a manner similar to Test Method 1. The ED50 values were obtained from the doses-ulcer inhibition rates curve.

[2] = test system: ddY male mice; test: Test Method 4: Acute Toxicity-Minimum Lethal Dose (MLD); conditions: oral, observation over 7 days
Text: ddY Male mice each weighing from 20 to 22 g (4 weeks of age and 5 mice in one group) were fasted overnight, followed by oral administration of the test compounds which had been suspended in 1% CMC aqueous solution. Observation was made as to the death of the animals over 7 days to thereby determine the minimum lethal doses (MLD).

[3] = test system: indomethacin induced ulcer; test: Test Method 3: Effect on Indomethacin Induced Ulcer; conditions: Rattus norvegicus; SD male rats, oral, 15 minutes before s.c. indomethacin (30 mg/kg); stomachs removed after 5 hours
Procedure: The method of Okabe et al (Jap. J. Pharmacol., 29, 670 (1979)) was followed.
SD male rats each weighing from 180 to 200 g (8 weeks of age and 6 to 8 in one group) were fasted for 24 hours, followed by oral administration of the test compounds which had been suspended in 1% CMC aqueous solution, and 15 minutes afterwards, by subcutaneous administration of indomethacin (30 mg/kg of weight) which had been dissolved in 3% sodium bicarbonate aqueous solution. After lapse of 5 hours, the animals were killed under etherization to take out the stomachs. Each of the stomachs was injected with 12 ml of 1% formalin aqueous solution containing 0.1% pontamine sky blue and then immersed in 1% formalin aqueous solution for 15 minutes. The ulcer factor and ulcer inhibition rate were determined in a manner similar to Test Method 1. The ED50 values were obtained from the dosesulcer inhibition rates curve.

[4] = test system: stress induced ulcer; test: Test Method 1: Effect on Stress Induced Ulcer; conditions: Rattus norvegicus; SD male rats, oral, 15 minutes before restraint and water immersion (24° C., 18 hours); from doses-ulcer inhibition rates curve
Procedure: 1. Test Procedures The method of Takagi et al (Jap. J. Pharmacol., 18, 9 (1968)) was followed. SD male rats each weighing from 180 to 200 g (8 weeks of age and 6 to 8 rats in one group) were fasted for 24 hours, followed by oral administration of the above test compounds which had been suspended in 1% CMC aqueous solution. 15 minutes later, the animals were put into a stress cage which was then immersed in a water tank at 24° C. at the depth of the […] of the animals. After being immersed for 18 hours, the animals were killed under etherization to excise the stomachs. Each of the stomachs was injected with 12 ml of 1% formalin aqueous solution and then immersed in 1% formalin aqueous solution for 15 minutes. The stomach was incised along its upper curvature and measured by an anatomic microscopy for the major axis (mm) of each ulcer that had developed on the gastric mucous membrane. The total major axis (mm) was taken as the ulcer factor. The ulcer inhibition rate was obtained from the following equation. The ED50 values were obtained from the doses-ulcer inhibition rates curve. [formula] where l is the ulcer factor of a group without the test compounds administered, and m is the ulcer factor of a group having such compounds administered.

Row | Compound | ED50 [1] | MLD, acute toxicity test (minimum lethal dose) [2] | ED50 [3] | ED50 [4]
1 | Cl.N=C(N)NC[C@H]1CC[C@H](C(=O)Nc2ccccc2)CC1 [Compound B, N-(phenyl)-trans-4-guanidinomethylcyclohexanecarboxamide hydrochloride] | 220 mg/kg | < 1000 mg/kg | 73 mg/kg | 143 mg/kg
2 | N=C(N)NCc1ccc(C(=O)Nc2ccccc2)cc1 [Compound A, N-phenyl-4-guanidinomethylbenzamide] | 35 mg/kg | > 3000 mg/kg | 58 mg/kg | 34 mg/kg
